Source: patent US11807644B2 (PMV Pharmaceuticals, Inc., priority 2020, dated 2023)

biological target: T1, recombinant His-tag Y220C p53 DBD protein (Homo sapiens, UniProt P04637, Y220C); test: In vitro DNA binding activity assay (TR-FRET): binding of His-tag Y220C p53 DBD to biotin-labeled consensus DNA; format: biochemical; conditions: SC150 = concentration to increase DNA binding by […], His-tag Y220C p53 DBD, biotin-labeled consensus DNA
T1 construct: recombinant His-tag Y220C p53 DBD protein (amino acids #˜94-312)

Structure (SMILES)	Y220C SC150 (μM)
CC1(n2ccc(C(=O)NCc3nc(-c4cc5c(N[C@@H]6CNCC[C@@H]6F)cccc5n4CC(F)(F)F)no3)c2)CCOCC1 [Compound 420B, N-{[3-(4-{[(3R,4S)-4-fluoropiperidin-3-yl]amino}-1-(2,2,2-trifluoroethyl)-1H-indol-2-yl)-1,2,4-oxadiazol-5-yl]methyl}-1-(4-methyloxan-4-yl)-1H-pyrrole-3-carboxamide]	* (* = 0 μM ≤ SC150 < 0.1 μM)
CCn1cccc1C(=O)NCc1nc(-c2cc3c(N[C@@H]4CCN(C)C[C@@H]4F)cccc3n2CC(F)(F)F)no1 [Compound 534B, 1-ethyl-N-{[3-(4-{[(3S,4R)-3-fluoro-1-methylpiperidin-4-yl]amino}-1-(2,2,2-trifluoroethyl)-1H-indol-2-yl)-1,2,4-oxadiazol-5-yl]methyl}-1H-pyrrole-2-carboxamide]	* (* = 0 μM ≤ SC150 < 0.1 μM)
CN1CC[C@@H](Nc2cccc3c2cc(-c2noc(CNC(=O)c4ccn(C5(C)CC5)c4)n2)n3CC(F)(F)F)[C@@H](F)C1 [Compound 428B, N-{[3-(4-{[(3S,4R)-3-fluoro-1-methylpiperidin-4-yl]amino}-1-(2,2,2-trifluoroethyl)-1H-indol-2-yl)-1,2,4-oxadiazol-5-yl]methyl}-1-(1-methylcyclopropyl)-1H-pyrrole-3-carboxamide]	* (* = 0 μM ≤ SC150 < 0.1 μM)
